The text below walks through data of patent US12421210B2, “Fused bicyclic heterocycles as therapeutic agents” (NEW YORK UNIVERSITY, priority 2018, dated 2025).

Molecules are shown by their SMILES.

As a reminder, the IC50 is the concentration at which inhibition is half-maximal.

In the first experiment the target is human NAMPT enzyme (His-hNAMPT) (Homo sapiens (Human), UniProt P43490). Description: NAMPT enzymatic inhibition assay (fluorescence, NADH product). To be noted: [BPS]; read-out: NAMPT IC50 (μM) [BPS]. In kind it is biochemical. The protocol: The compounds were then diluted 20 fold in an intermediate dilution to 5% DMSO and water. Finally 10 μL of each compound was added to the assay plate, in duplicate, with highest concentration at 30 μM and the lowest at 0.001 μM in a final volume of 50 μL and 1% DMSO concentration. Each assay also tested, in parallel, two reference compounds, FK866 and GMX1778, with highest concentration at 10 μM and lowest at 0.0003 μM. 200 ng of human NAMPT enzyme (His-hNAMPT obtained from E. coli expression system) diluted in […] (tris-buffered saline-Polysorbate 20) 1× was added to each well in a volume of 10 μL and the compounds were incubated with the enzyme at room temperature for 20 minutes. After the incubation, 30 μL of master mixture were added to each well. The master mixture contained: 50 mM Tris-HCl, pH 8.0, 12.5 mM MgCl2, 20 μM nicotinamide, 40 μM phosphoribosyl pyrophosphate (PRPP), 20 μM adenosine triphosphate (ATP), 30 μg/mL of alcohol dehydrogenase, 10 μg/mL of NMNAT, 1.5% alcohol, 1 mM dithiothreitol (DTT), 0.02% bovine serum albumin (BSA), 0.01% Tween 20. The reaction was performed at 30° C. for 60 minutes. Fluorescence intensity was measured at an excitation of 340 nm and an emission of 460 nm using a Tecan Infinite M1000 microplate reader. The fluorescence values indicated increase of NADH product.
Sequence of human NAMPT enzyme (His-hNAMPT) (P43490 whole entry): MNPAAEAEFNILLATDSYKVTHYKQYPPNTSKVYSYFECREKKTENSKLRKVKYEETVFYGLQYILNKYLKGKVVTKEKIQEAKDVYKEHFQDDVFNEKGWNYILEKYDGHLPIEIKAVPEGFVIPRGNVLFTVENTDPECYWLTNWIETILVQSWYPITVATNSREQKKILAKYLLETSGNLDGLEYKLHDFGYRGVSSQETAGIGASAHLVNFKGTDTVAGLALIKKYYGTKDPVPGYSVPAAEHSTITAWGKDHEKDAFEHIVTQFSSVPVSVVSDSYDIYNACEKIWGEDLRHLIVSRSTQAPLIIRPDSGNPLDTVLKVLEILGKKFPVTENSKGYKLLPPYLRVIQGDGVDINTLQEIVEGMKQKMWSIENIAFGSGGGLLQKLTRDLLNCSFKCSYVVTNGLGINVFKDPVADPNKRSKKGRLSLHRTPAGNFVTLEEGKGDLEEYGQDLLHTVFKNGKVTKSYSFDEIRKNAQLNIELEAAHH
Enzyme activity assay was performed in duplicate at each concentration. The fluorescence data was analyzed and compared. In the absence of the compound, the intensity (Ce) in each data set was defined as 100% activity. In the absence of enzyme, the intensity (C0) in each data set was defined as 0% activity. The percent activity in the presence of each compound was calculated according to the following equation: % activity=(C−C0)/(Ce−C0), where C is the fluorescence in the presence of the compound.
The % activity vs. compound concentrations were then plotted using non-linear regression analysis of Sigmoidal dose-response curve generated with the equation Y=B+(T−B)/1+10^((Log EC50-X)×Hill Slope), where Y is percent activity, B is minimum percent activity, T is maximum percent activity, X is logarithm of compound and Hill Slope=slope factor or Hill coefficient.
For `CC1(OC(=O)N2C[C@@H]3[C@@H](CCNC(=O)C4C[C@@H]4c4cccnc4)[C@@H]3C2)COC1` (mixture of isomers) [Example 53, (1R,5S,6s)-3-methyloxetan-3-yl 6-(2-((1S,2S)-2-(pyridin-3-yl)cyclopropanecarboxamido)ethyl)-3-azabicyclo[3.1.0]hexane-3-carboxylate and (1R,5S,6s)-3-methyloxetan-3-yl 6-(2-((1R,2R)-2-(pyridin-3-yl)cyclopropanecarboxamido)ethyl)-3-azabicyclo[3.1.0]hexane-3-carboxylate], the IC50 was 0.01 to 0.49 µM. As to `O=C(/C=C/c1cccnc1)NCC[C@H]1[C@@H]2CN(c3ccccc3)C(=O)[C@H]12` (racemic) [Example 256 racemic, (E)-N-(2-((1R,5S,6S)-2-oxo-3-phenyl-3-azabicyclo[3.1.0]hexan-6-yl)ethyl)-3-(pyridin-3-yl)acrylamide and (E)-N-(2-((1S,5R,6R)-2-oxo-3-phenyl-3-azabicyclo[3.1.0]hexan-6-yl)ethyl)-3-(pyridin-3-yl)acrylamide], the IC50 lay in the range of 0.01 to 0.49 µM. Regarding `O=C(/C=C/c1cccnc1)NCC[C@@H]1[C@H]2CN(Cc3ccccc3)C(=O)[C@@H]12` (racemic) [Example 257, (E)-N-(2-((1R,5S,6S)-3-benzyl-2-oxo-3-azabicyclo[3.1.0]hexan-6-yl)ethyl)-3-(pyridin-3-yl)acrylamide and (E)-N-(2-((1S,5R,6R)-3-benzyl-2-oxo-3-azabicyclo[3.1.0]hexan-6-yl)ethyl)-3-(pyridin-3-yl)acrylamide], the IC50 fell in the range of 0.01 to 0.49 µM. Take `Nc1ccc(/C=C/C(=O)NCC[C@@H]2[C@H]3CN(Cc4ccccc4)C(=O)[C@@H]23)cn1` (racemic) [Example 258, (E)-3-(6-aminopyridin-3-yl)-N-(2-((1R,5S,6S)-3-benzyl-2-oxo-3-azabicyclo[3.1.0]hexan-6-yl)ethyl)acrylamide and (E)-3-(6-aminopyridin-3-yl)-N-(2-((1S,5R,6R)-3-benzyl-2-oxo-3-azabicyclo[3.1.0]hexan-6-yl)ethyl)acrylamide]: the IC50 was in the range of 0.01 to 0.49 µM. On the same count and under the same terms, to `Nc1ccc(/C=C/C(=O)NCC[C@@H]2[C@H]3CN(c4ccccc4)C(=O)[C@@H]23)cn1` (racemic) [Example 259, (E)-3-(6-aminopyridin-3-yl)-N-(2-((1S,5R,6R)-2-oxo-3-phenyl-3-azabicyclo[3.1.0]hexan-6-yl)ethyl)acrylamide and (E)-3-(6-aminopyridin-3-yl)-N-(2-((1R,5S,6S)-2-oxo-3-phenyl-3-azabicyclo[3.1.0]hexan-6-yl)ethyl)acrylamide] belongs 0.01 to 0.49 µM; to `O=C(NCC[C@@H]1[C@H]2CN(c3ccccc3)C(=O)[C@@H]12)c1cc2ccncc2o1` (racemic) [Example 260, N-(2-((1R,5S,6S)-2-oxo-3-phenyl-3-azabicyclo[3.1.0]hexan-6-yl)ethyl)furo[2,3-c]pyridine-2-carboxamide and N-(2-((1S,5R,6R)-2-oxo-3-phenyl-3-azabicyclo[3.1.0]hexan-6-yl)ethyl)furo[2,3-c]pyridine-2-carboxamide], 0.5 to 0.99 µM. With `CC(C)(C)OC(=O)N1C[C@H]2CCC(CNC(=O)NCc3cccnc3)C[C@H]2C1` (stereo in doubt) [Example 269, tert-butyl 5-((3-(pyridin-3-ylmethyl)ureido)methyl)hexahydro-1H-isoindole-2(3H)-carboxylate], the IC50 lay within 1 to 29 µM.

Take `CC(C)(C)OC(=O)N1C[C@H]2CCC(CNC(=O)N3Cc4ccncc4C3)C[C@H]2C1` (stereo in doubt) [Example 270, tert-butyl 5-((2,3-dihydro-1H-pyrrolo[3,4-c]pyridine-2-carboxamido)methyl)hexahydro-1H-isoindole-2(3H)-carboxylate]: the IC50 was in the range of 0.01 to 0.49 µM. The same measure, in the same setting: with `CC(C)(C)OC(=O)N1C[C@@H]2[C@@H](CCNC(=O)/C=C/c3cccnc3)[C@@H]2C1` [Example 1, (1R,5S,6s)-tert-butyl 6-(2-((E)-3-(pyridin-3-yl)acrylamido)ethyl)-3-azabicyclo[3.1.0]hexane-3-carboxylate] the figure was less than 0.01 µM; with `CC(C)(C)OC(=O)N1C[C@@H]2[C@@H](CCNC(=O)COc3cccnc3)[C@@H]2C1` [Example 2, (1R,5S,6s)-tert-butyl 6-(2-(2-(pyridin-3-yloxy)acetamido)ethyl)-3-azabicyclo[3.1.0]hexane-3-carboxylate], 0.01 to 0.49 µM. For the compound `CC(C)(C)OC(=O)N1C[C@@H]2[C@@H](CCNC(=O)c3cc4ccncc4s3)[C@@H]2C1` [Example 3], the IC50 fell in the range of 0.01 to 0.49 µM. Consider `CC(C)(C)OC(=O)N1C[C@@H]2[C@@H](CCNC(=O)/C=C/c3ccc(N)nc3)[C@@H]2C1` [Example 4, (1R,5S,6s)-tert-butyl 6-(2-((E)-3-(6-aminopyridin-3-yl)acrylamido)ethyl)-3-azabicyclo[3.1.0]hexane-3-carboxylate], for which the IC50 lay in the range of 0.01 to 0.49 µM. With `CC(C)(C)OC(=O)N1C[C@@H]2[C@@H](CCNC(=O)c3cc4ccncc4o3)[C@@H]2C1` [Example 5], the IC50 lay in the range of 0.01 to 0.49 µM. On to `CC(C)(C)OC(=O)N1C[C@@H]2[C@@H](CCNC(=O)c3ccc4sccc4c3)[C@@H]2C1` [Example 6, (1R,5S,65s)-tert-butyl 6-(2-(benzo[b]thiophene-5-carboxamido)ethyl)-3-azabicyclo[3.1.0]hexane-3-carboxylate], for which the IC50 was in the range of 0.01 to 0.49 µM.

The experiment is the same for the next values; noted with them: [HDB]; read-out: NAMPT IC50 (μM) [HDB].
Regarding `O=C(/C=C/c1cccnc1)NCC[C@@H]1[C@H]2CN(c3ccc(F)cc3)C(=O)[C@@H]12` (mixture of isomers) [Example 264, (E)-N-(2-((1R,5S,6S)-3-(4-fluorophenyl)-2-oxo-3-azabicyclo[3.1.0]hexan-6-yl)ethyl)-3-(pyridin-3-yl)acrylamide and (E)-N-(2-((1S,5R,6R)-3-(4-fluorophenyl)-2-oxo-3-azabicyclo[3.1.0]hexan-6-yl)ethyl)-3-(pyridin-3-yl)acrylamide], the IC50 was in the range of 0.01 to 0.49 µM. For the compound `O=C(/C=C/c1cccnc1)NCC[C@H]1[C@@H]2CN(c3ccccc3)C(=O)[C@H]12` (racemic) [Example 256 racemic, (E)-N-(2-((1R,5S,6S)-2-oxo-3-phenyl-3-azabicyclo[3.1.0]hexan-6-yl)ethyl)-3-(pyridin-3-yl)acrylamide and (E)-N-(2-((1S,5R,6R)-2-oxo-3-phenyl-3-azabicyclo[3.1.0]hexan-6-yl)ethyl)-3-(pyridin-3-yl)acrylamide], the IC50 is 0.01 to 0.49 µM.

As for `O=C(/C=C/c1cccnc1)NCC[C@@H]1[C@H]2CN(c3cccc(C(F)(F)F)c3)C(=O)[C@@H]12` (racemic) [Example 262, (E)-N-(2-((1R,5S,6S)-2-oxo-3-(3-(trifluoromethyl)phenyl)-3-azabicyclo[3.1.0]hexan-6-yl)ethyl)-3-(pyridin-3-yl)acrylamide and (E)-N-(2-((1S,5R,6R)-2-oxo-3-(3-(trifluoromethyl)phenyl)-3-azabicyclo[3.1.0]hexan-6-yl)ethyl)-3-(pyridin-3-yl)acrylamide], the IC50 lay within 0.01 to 0.49 µM. As to `Nc1ccc(/C=C/C(=O)NCC[C@@H]2[C@H]3CN(c4cccc(C(F)(F)F)c4)C(=O)[C@@H]23)cn1` (racemic) [Example 263, (E)-3-(6-aminopyridin-3-yl)-N-(2-((1R,5S,6S)-2-oxo-3-(3-(trifluoromethyl)phenyl)-3-azabicyclo[3.1.0]hexan-6-yl)ethyl)acrylamide and (E)-3-(6-aminopyridin-3-yl)-N-(2-((1S,5R,6R)-2-oxo-3-(3-(trifluoromethyl)phenyl)-3-azabicyclo[3.1.0]hexan-6-yl)ethyl)acrylamide], the IC50 lay within 0.01 to 0.49 µM. On to `O=C(NCC[C@@H]1[C@H]2CN(c3ccc(F)cc3)C(=O)[C@@H]12)N1Cc2ccccc2C1` (racemic) [Example 266, N-(2-((1R,5S,6S)-3-(4-fluorophenyl)-2-oxo-3-azabicyclo[3.1.0]hexan-6-yl)ethyl)isoindoline-2-carboxamide and N-(2-((1S,5R,6R)-3-(4-fluorophenyl)-2-oxo-3-azabicyclo[3.1.0]hexan-6-yl)ethyl)isoindoline-2-carboxamide], for which the IC50 was in the range of 0.01 to 0.49 µM.

In the case of `O=C(NCC[C@H]1[C@@H]2CN(c3ccccc3)C(=O)[C@H]12)c1cc(-c2cccnc2)on1` (stereo in doubt) [Example 261, N-(2-((1R,5S,6S)-2-oxo-3-phenyl-3-azabicyclo[3.1.0]hexan-6-yl)ethyl)-5-(pyridin-3-yl)isoxazole-3-carboxamide/N-(2-((1S,5R,6R)-2-oxo-3-phenyl-3-azabicyclo[3.1.0]hexan-6-yl)ethyl)-5-(pyridin-3-yl)isoxazole-3-carboxamide], the IC50 fell in the range of 0.01 to 0.49 µM. As for `O=C(NCC[C@H]1[C@@H]2CN(c3ccc(F)cc3)C(=O)[C@H]12)c1cc(-c2cccnc2)on1` (stereo in doubt) [Example 265, N-(2-((1R,5,6S)-3-(4-fluorophenyl)-2-oxo-3-azabicyclo[3.1.0]hexan-6-yl)ethyl)-5-(pyridin-3-yl)isoxazole-3-carboxamide and N-(2-((1S,5R,6R)-3-(4-fluorophenyl)-2-oxo-3-azabicyclo[3.1.0]hexan-6-yl)ethyl)-5-(pyridin-3-yl)isoxazole-3-carboxamide], the IC50 lay in the range of 0.01 to 0.49 µM.
